In patent US9402839B2, “Selective targeting agents for mitochondria” (University of Pittsburgh—Of the Commonwealth System of …, priority 2006, dated 2016):
Non-standard residues stand in square brackets, D forms with d. Residues, ends and D or L forms follow the SMILES beside them. *: point of attachment. Orn = NCCC[C@H](N)C(=O)O; Cbz = O=C(OCc1ccccc1)*; Boc = CC(C)(C)OC(=O)*; X1 = CC1CCN=C(N*)S1

What was measured:
[1] = tested on: 32D c13 hemopoietic cells; assay: Mass spectrometry analysis of mitochondria isolated from incubated 32D c13 cells; type: cell-based; settings: 100 μM, two hours at 37° C.
Description: An unconjugated and conjugated NOS antagonist, (AMT, 100 μM) and an unconjugated and conjugated nitroxide derivative (4-amino-TEMPO, 100 μM) were incubated for two hours at 37° C. with 32D c13 hemopoietic cells.
Following incubation, the cells were lysed and the mitochondria isolated for a mass spectrometry analysis where compounds isolated from mitochondria were identified as Na+ adducts. […] Thus, the targeting peptides successfully direct a NOS antagonist and a nitroxide to the mitochondria.

[2] = tested on: irradiated uroepithelial cells; assay: NO and peroxynitrite production in irradiated uroepithelial cells (microsensor measurements); type: cell-based
Description: Further physiological studies were conducted to determine the effects of peptide-targeted AMT and 4-amino-TEMPO on NO and peroxynitrite production in irradiated uroepithelial cells. The cells were cultured in an 8-well slide chamber for 3 days and then microsensor measurements were taken 24 hours after irradiation.
In cells treated with high-dose conjugated 4-amin-TEMPO (100 μM), peroxynitrite production was decreased by approximately 4-fold.

[3] = tested on: rat ileal mucosal permeability; assay: Intestinal mucosal permeability assay (FD4 clearance, everted gut sacs) after pressure-controlled hemorrhagic shock; type: in vivo; settings: for protection against hemorrhagic shock-induced ileal mucosal hyperpermeability: intraluminal, 0.1-100 μM, 2 h shock
Description: Intestinal mucosal permeability assay. Animals were allowed access to water but not food for 24 h prior to the experiment in order to decrease the volume of intestinal contents. The rats were instrumented as described above.
A midline laparotomy was performed and the small intestine was exteriorized from the duodenojejunal junction to the ileocecal valve. A small incision was made on the antimesenteric aspect of the proximal small intestine and saline solution (1.5 ml) was injected. The bowel was ligated proximally and distally to the incision with 4-0 silk (LOOK, Reading, Pa.).
The small intestine was compressed gently in aboral direction along its length to displace intestinal contents into the colon. Starting 5 cm from the ileocecal valve, the ileum was partitioned into six contiguous water-tight segments. Each segment was 3 cm long and was bounded proximally and distally by constricting circumferential 4-0 silk sutures. Care was taken to ensure that the vascular supply to intestine was not compromised, and each segment was well-perfused.
Two randomly selected segments in each rat were injected with 0.3 ml of vehicle and served as “no treatment” controls. In order to fill the segments, a small incision was made and the solution was injected using a Teflon catheter (ABBOCATH 16Ga, ABBOTT LABORATORIES).
The remaining four other segments were injected with solutions containing either 4-hydroxy-2,2,6,6-tetramethylpiperidine-N-oxyl (TEMPOL) or one of the Gramicidin S-based compounds. Four different final concentrations of TEMPOL in normal saline were evaluated: 0.1, 1, 5 and 20 mM. The hemigramicidin-based compounds were dissolved in a mixture of dimethylsulfoxide (DMSO) and normal saline (1:99 v/v) and injected at final concentrations of 0.1, 1, 10 or 100 μM.
After the segments were loaded with saline or the test compounds, the bowel was replaced inside the peritoneal cavity and the abdominal incision was temporarily closed using Backhaus forceps.
After a 5 min stabilization period, hemorrhagic shock was induced by withdrawing blood via the jugular catheter. MAP was maintained at 30±3 mm Hg for 2 hours. The shed blood was re-infused as needed to maintain MAP within the desired range.
After 2 h of shock, the animals were euthanized with an intracardiac KCl bolus injection. The ileum was rapidly excised from the ileocecal valve to the most proximal gut segment. The tips of each segment were discarded. In order to assay caspases 3 and 7 activity and phospholipids peroxidation, mucosa samples were collected from gut segments immediately after hemorrhage and stored at −80° C. For permeability measurements, each segment was converted into an everted gut sac, as previously described by Wattanasirichaigoon et al., see Wattanasirichaigoon, S. et al., Effect of mesenteric ischemia and reperfusion or hemorrhagic shock on intestinal mucosal permeability and ATP content in rats, SHOCK, 12:127-133 (1999).
Briefly, as per the Wattanasirichaigoon protocol referenced above, the sacs were prepared in ice-cold modified Krebs-Henseleit bicarbonate buffer (“KHBB”), pH 7.4. One end of the gut segment was ligated with a 4-0 silk suture; the segment was then everted onto a thin plastic rod. The resulting gut sac was mounted on a Teflon catheter (Abbocath 16GA, Abbot Laboratories) connected to a 3 ml plastic syringe containing 1.5 ml of KHBB. The sac was suspended in a beaker containing KHBB plus fluorescein-isothiocyanate labeled dextran (average molecular mass 4 kDa; FD4; 0.1 mg/ml). This solution was maintained at 37° C., and oxygenated by bubbling with a gas mixture (O2 95%/CO2 5%). After 30 min, the fluid within the gut sac was collected. The samples were cleared by centrifugation at 2000 g for 5 min.
Fluorescence of FD4 in the solution inside the beaker and within each gut sac was measured using a fluorescence spectrophotometer (LS-50, PERKIN-ELMER, Palo Alto, Calif.) at an excitation wavelength of 492 nm and an emission wavelength of 515 nm. […]

mitochondrial membrane = assay: Quantitative mass spectrometry of AMT peptide conjugates permeating the mitochondrial membrane; type: cell-based; settings: for Fmole/l0M mitochondrial protein: relative quantification of conjugate concentration at the target site
Description: Quantitative mass spectrometry studies were used to compare the effectiveness of several AMT peptide conjugates in permeating the mitochondrial membrane, specifically XJB-5-234, XJB-5-133, XJB-5-241, and XJB-5-127. The Fmole/10 μM mitochondrial protein ratio provides a relative quantification of conjugate concentration at the target site.

[4] = tested on: mouse embryonic cells (MEC); type: cell-based; settings: 10 μM; with and without K3Fe(CN)6
Description: Electron paramagnetic resonance (“EPR”) spectroscopy was used to monitor the cellular delivery of compounds 5a and 5b shown in FIG. 2 in mouse embryonic cells (“MEC”).
The following conditions were used during the EPR-based analysis of the integration and reduction of nitroxide Gramicidin S-peptidyl conjugates in MECs. The MECs at a concentration of 10 million MECs per mL were incubated with 10 μM of 4-AT and compound 5a, respectively. Recovered nitroxide radicals in whole cells, mitochondria, and cytosol fractions were resuspended in phosphate buffer saline (“PBS”) in the presence and absence, respectively, of 2 μM K3Fe(CN)6.

MECs [5] = assay: Determination of intracellular superoxide radicals (DHE oxidation, flow cytometry) in ActD-treated MECs; type: cell-based, mouse; settings: 10 μM pretreatment, ActD 100 ng/mL; nearly two-fold ActD-induced increase
Description: Determination of intracellular superoxide radicals Oxidation-dependent fluorogenic dye, dihydroethidium (“DHE”, Molecular Probes) was used to evaluate intracellular production of superoxide radicals. DHE is cell permeable and, in the presence of superoxide, is oxidized to fluorescent ethidium which intercalates into DNA. The fluorescence of ethidium was measured using a FACscan (BECTON-DICKINSON, Rutherford, N.J.) flow cytometer, equipped with a 488-nm argon ion laser and supplied with the Cell Quest software. Mean fluorescence intensity from 10,000 cells were acquired using a 585-nm bandpass filter (FL-2 channel).

MECs [6] = assay: ActD-induced apoptosis in MECs (PS externalization, caspase-3 activation, DNA fragmentation); type: cell-based, mouse; settings: 10 μM / low concentrations, ActD 100 ng/mL
Source text: Cells that annexin V-positive and PI-negative were considered apoptotic.

## CC1CCN=C(N)S1 (centres unmarked) [AMT, 2-amino-6-methyl-thiazine]
[1]
  permeation of the mitochondrial membrane (mass spectrometry of isolated mitochondria): do not enter the mitochondria membrane in substantial quantities
[2]
  radioprotectant effectiveness compared with 4-amino-TEMPO: more effective radioprotectant
[2]; 10 μM, 24 hours after irradiation
  NO induced peroxynitrite formation: comparable amount of peroxynitrite

## CC(C)C[C@@H](/C=C/[C@H](Cc1ccccc1)C(=O)N1CCC[C@H]1C(=O)N[C@H](C(=O)N[C@@H](CCCNC(=O)OCc1ccccc1)C(=O)NC1=NCCC(C)S1)C(C)C)NC(=O)OC(C)(C)C (stereo partly drawn) [XJB-5-133, Boc-Leu-ψ[(E)-CH═CH]-^DPhe-Pro-Val-Orn(Cbz)-AMT]
[3]
  protection against hemorrhagic shock-induced ileal mucosal hyperpermeability: did not afford protection
Mitochondrial membrane
  biological activity compared with XJB-5-241: less biologically active
  Fmole/l0M mitochondrial protein: 89.8 Fmole/l0M mitochondrial protein

## CC1(C)CC(O)CC(C)(C)N1[O] [TEMPOL, 4-hydroxy-2,2,6,6-tetramethylpiperidine-N-oxyl, reference compound]
[3]; intraluminal, 0.1, 1, 5 and 20 mM tested
  concentrations in the gut lumen that ameliorated hemorrhagic shock-induced ileal mucosal hyperpermeability: > 1 mM

## CC1(C)CC(N)CC(C)(C)N1[O] [4-AT, 4-amino-TEMPO, reference compound]
[4]
  integration and one-electron reduction in MECs (EPR signal increase upon ferricyanide): did not effectively permeate cells or the mitochondria
MECs [5]
  intracellular superoxide generation in MECs: no effect
MECs [6]
  protection of MECs against ActD-induced apoptosis: afforded no protection
[1]
  permeation of the mitochondrial membrane (mass spectrometry of isolated mitochondria): only permeate the mitochondrial membrane with the assistance of the attached GS-derived targeting sequence
[2]; 100 μM, 24 hours after irradiation
  capsaicin-evoked peroxynitrite formation compared with untreated irradiated cells: comparable amount of peroxynitrite

## CC(C)C[C@@H](/C=C/[C@H](Cc1ccccc1)C(=O)NC1=NCCC(C)S1)NC(=O)OC(C)(C)C (stereo partly drawn) [XJB-5-234, Boc-Leu-ψ[(E)-CH═CH]-^DPhe-AMT]
Mitochondrial membrane
  Fmole/l0M mitochondrial protein: 1.45 Fmole/l0M mitochondrial protein

## CC(C)C[C@H](NC(=O)OC(C)(C)C)C(=O)N[C@H](Cc1ccccc1)C(=O)N1CCC[C@H]1C(=O)N[C@H](C(=O)N[C@@H](CCCNC(=O)OCc1ccccc1)C(=O)NC1=NCCC(C)S1)C(C)C (stereo partly drawn) [XJB-5-127, Boc-Leu-^DPhe-Pro-Val-Orn(Cbz)-AMT] (Boc-L[dF]PV[Orn](Cbz)-X1)
[3]
  protection against hemorrhagic shock-induced ileal mucosal hyperpermeability: Ineffective
Mitochondrial membrane
  biological activity compared with XJB-5-241: less biologically active

## C/C(=C\[C@H](Cc1ccccc1)C(=O)N1CCC[C@H]1C(=O)N[C@H](C(=O)N[C@@H](CCCNC(=O)OCc1ccccc1)C(=O)NC1=NCCC(C)S1)C(C)C)[C@H](CC(C)C)NC(=O)OC(C)(C)C (stereo partly drawn) [XJB-5-241, Boc-Leu-ψ[(E)-C(CH3)═CH]-^DPhe-Pro-Val-Orn(Cbz)-AMT]
Mitochondrial membrane; among XJB-5-234, XJB-5-133, XJB-5-241 and XJB-5-127
  ranking of conjugates in permeating the mitochondrial membrane: most efficacious conjugate
Mitochondrial membrane
  Fmole/l0M mitochondrial protein: 103.3 Fmole/l0M mitochondrial protein
